From patent US20040116330A1, “Preventive/therapeutic method for cancer” (priority 2001, published 2004)

Experiments:
Src = Src (Homo sapiens, UniProt P12931); experiment: cell-based
Method: The medium was changed to a serum-free medium and the cells were further incubated for one day. […] The culture medium was removed 5 min later and SDS sample buffer was added to give a cell lysate (200 μL).

HER2 [1] = target: T1, HER2 (Homo sapiens, UniProt P04626); experiment: cell-based
MDA-MB-231 [2] = conditions: breast, HER2 score 0, dose 20 mg/kg/day orally for 14 days
Method: (§1) An increase in the tumor volume from that before administration to that on the next day of the final administration was compared to that of the control group and an anti-tumor effect was studied. In addition, the tumor volume was calculated from the following equation: […]
(§2) A ratio of the value obtained by subtracting a tumor volume on the day of the administration initiation from the tumor volume on the next day of the completion of the administration in the control group, and the value obtained by subtracting the tumor volume on the day of the administration initiation from the tumor volume on the next day of the completion of the administration was determined as a growth rate (T/C (%)).

G401 = experiment: cells; conditions: Homo sapiens, G-401, read-out: Compound B4 IC50 (μmol/L), G401
Method: (§3) 1) Cell growth inhibitory action; Each cell line was sown in a 24-well multi-well plate (5×10^4 to 2×10^5 cells/well) and cultured overnight in a carbon dioxide gas incubator (5% CO2, 37° C. ).

NIH: OV-CAR-3 = experiment: cells; conditions: Homo sapiens, OVCAR-3, read-out: Compound B4 IC50 (μmol/L), NIH: OV-CAR-3
Method: as §3

HCT-116 = experiment: cells; conditions: Homo sapiens, HCT-116, read-out: Compound B4 IC50 (μmol/L), HCT-116
Method: as §3

786-O = experiment: cells; conditions: Homo sapiens, 786-0, read-out: Compound B4 IC50 (μmol/L), 786-O
Method: as §3

Ma-1 = experiment: cells; conditions: read-out: Compound B4 IC50 (μmol/L), Ma-1
Method: as §3

BT-474 = experiment: cells; conditions: Homo sapiens, BT-474, read-out: Compound B4 IC50 (μmol/L), BT-474
Method: as §3

A549 = experiment: cells; conditions: Homo sapiens, A549, read-out: Compound B4 IC50 (μmol/L), A549
Method: as §3

ACHN = experiment: cells; conditions: Homo sapiens, read-out: Compound B4 IC50 (μmol/L), ACHN
Method: as §3

MIA-PaCa-2 = experiment: cells; conditions: Homo sapiens, MIA PaCa-2, read-out: Compound B4 IC50 (μmol/L), MIA-PaCa-2
Method: as §3

BxPC-3 = experiment: cells; conditions: Homo sapiens, BXPC-3, read-out: Compound B4 IC50 (μmol/L), BxPC-3
Method: as §3

SW480 = experiment: cells; conditions: Homo sapiens, SW480, read-out: Compound B4 IC50 (μmol/L), SW480
Method: as §3

MDA-MB-231 [3] = experiment: cells; conditions: Homo sapiens, MDA-MB-231, read-out: Compound B4 IC50 (μmol/L), MDA-MB-231
Method: as §3

PA-1 = experiment: cells; conditions: Homo sapiens, PA-1, read-out: Compound B4 IC50 (μmol/L), PA-1
Method: as §3

ES-2 = experiment: cells; conditions: Homo sapiens, ES-2, read-out: Compound B4 IC50 (μmol/L), ES-2
Method: as §3

HER2 [4] = target: T1, HER2; experiment: in vivo
Method: Four hours later, the tumor was sampled and a tumor homogenate was prepared.

[5] = tested on: HER2 high expression human breast cancer cells BT-474; conditions: BT-474, 1 μmol/L, 5 days
Method: After the culture, the culture medium was removed and a cell suspension was prepared by a trypsin treatment and the cells were fixed with 70% ethanol. The DNA of the cells was stained with propidium iodide and the DNA amount was measured by a flow cytometer. The cells with a decreased amount of DNA are apoptotic (cell death) cells.

[6] = tested on: HER2 high expression human breast cancer cell BT-474; experiment: Anti-tumor effect, combined use, BT-474 cancer-bearing nude mice; format: in vivo; conditions: BT-474 nude mice, 5 cases out of 5, same regimens as T/C
Method: An increase in the tumor volume from that before administration to that on the next day of the final administration was compared to that of the control group and anti-tumor effect was studied. In addition, the tumor volume was calculated from the following equation:
Formula: Tumor volume=longer diameter×shorter diameter×shorter diameter×(½)
The ratio of the value obtained by subtracting the tumor volume on the day of administration initiation from the tumor volume on the next day of the completion of the administration in the control group, and the value obtained by subtracting the tumor volume on the day of administration initiation from the tumor volume on the next day of the completion of the administration was determined as a growth rate (T/C (%)).

[7] = tested on: HER2 high expression human breast cancer cells BT-474; conditions: HER2 score 3+, dose 20 mg/kg/day orally for 14 days
Method: Immediately after transplantation and day 7 after the transplantation, estradiol dipropionate (5 mg/kg solution, 50 μL) was intramuscularly administered to the hind leg with the aim of enhancing the survival rate of the tumor. HER2 expression human non-parvicellular lung cancer A549 cells were suspended in Matrigel solution and 5,000,000 cells were subcutaneously transplanted into the chest of female BALB/c nude mouse (6 weeks of age). HER2 expression human kidney cancer ACHN cells (2,000,000 cells) were subcutaneously transplanted into the chest of nude mouse. […]
as §1, §2

[8] = tested on: HER2/EGF-R co-expression cells (A549); conditions: 3 days, cell count
Method: (§4) 1) Cell growth inhibitory action; Each cell line was sown in a 24-well multi-well plate (5×10^4 cells/well) and cultured overnight in a carbon dioxide gas incubator (5% CO2, 37° C. ).

[9] = tested on: HER2 expression cells (Ma-46); conditions: 3 days, cell count
Method: as §4

[10] = tested on: HER2 non-expression cells (Ma-1); conditions: 3 days, cell count
Method: as §4

T1 sequence (P04626 23-1255): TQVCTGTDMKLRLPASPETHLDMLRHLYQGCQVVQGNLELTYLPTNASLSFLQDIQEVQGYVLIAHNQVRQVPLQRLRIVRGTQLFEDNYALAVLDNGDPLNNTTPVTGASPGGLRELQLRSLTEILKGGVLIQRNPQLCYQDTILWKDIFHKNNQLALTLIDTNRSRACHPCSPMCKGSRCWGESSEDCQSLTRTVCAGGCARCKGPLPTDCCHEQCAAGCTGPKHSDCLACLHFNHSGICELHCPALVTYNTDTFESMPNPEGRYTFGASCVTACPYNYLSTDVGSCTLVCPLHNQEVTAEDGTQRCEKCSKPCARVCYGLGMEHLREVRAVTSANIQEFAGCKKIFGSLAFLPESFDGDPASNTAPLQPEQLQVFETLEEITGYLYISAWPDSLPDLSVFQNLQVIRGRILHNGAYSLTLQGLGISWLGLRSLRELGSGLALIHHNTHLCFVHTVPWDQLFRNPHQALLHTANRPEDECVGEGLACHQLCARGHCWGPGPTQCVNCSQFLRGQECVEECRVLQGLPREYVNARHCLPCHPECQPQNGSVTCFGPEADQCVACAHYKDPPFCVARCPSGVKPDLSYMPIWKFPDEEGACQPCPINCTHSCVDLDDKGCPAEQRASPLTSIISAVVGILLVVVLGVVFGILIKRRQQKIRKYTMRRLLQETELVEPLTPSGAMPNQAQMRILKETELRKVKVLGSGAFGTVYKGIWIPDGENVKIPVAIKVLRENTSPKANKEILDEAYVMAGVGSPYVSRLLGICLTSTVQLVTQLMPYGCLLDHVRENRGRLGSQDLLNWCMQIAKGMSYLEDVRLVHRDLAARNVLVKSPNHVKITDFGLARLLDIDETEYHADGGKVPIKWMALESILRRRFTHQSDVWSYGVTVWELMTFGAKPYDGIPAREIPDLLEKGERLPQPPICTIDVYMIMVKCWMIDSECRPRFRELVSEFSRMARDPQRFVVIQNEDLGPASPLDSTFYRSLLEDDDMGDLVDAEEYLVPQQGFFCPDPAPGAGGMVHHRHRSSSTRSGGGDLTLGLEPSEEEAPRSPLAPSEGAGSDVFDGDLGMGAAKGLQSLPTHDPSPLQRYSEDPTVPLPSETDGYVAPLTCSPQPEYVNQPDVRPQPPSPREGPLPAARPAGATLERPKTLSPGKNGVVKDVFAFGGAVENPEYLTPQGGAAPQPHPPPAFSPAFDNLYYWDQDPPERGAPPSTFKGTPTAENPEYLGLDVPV
Chain of Src (P12931 2-536 limits assumed): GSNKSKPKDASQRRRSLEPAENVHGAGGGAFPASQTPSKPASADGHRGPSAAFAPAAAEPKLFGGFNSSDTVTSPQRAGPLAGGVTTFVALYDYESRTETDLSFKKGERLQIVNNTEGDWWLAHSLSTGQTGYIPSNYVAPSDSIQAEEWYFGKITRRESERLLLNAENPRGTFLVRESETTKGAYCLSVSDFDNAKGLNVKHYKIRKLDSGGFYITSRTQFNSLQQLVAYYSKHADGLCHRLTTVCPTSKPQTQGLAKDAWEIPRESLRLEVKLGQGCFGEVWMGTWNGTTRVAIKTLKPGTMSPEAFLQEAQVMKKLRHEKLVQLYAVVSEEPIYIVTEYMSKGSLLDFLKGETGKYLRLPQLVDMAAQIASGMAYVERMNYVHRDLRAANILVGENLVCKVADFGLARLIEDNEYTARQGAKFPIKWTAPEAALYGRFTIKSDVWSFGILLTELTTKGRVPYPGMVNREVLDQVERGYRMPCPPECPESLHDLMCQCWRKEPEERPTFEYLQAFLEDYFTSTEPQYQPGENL

Structure (SMILES): FC(F)(F)c1ccc(/C=C/c2nc(COc3ccc(CCCCn4ccnn4)cc3)co2)cc1 [Compound B4, 1-(4-{4-[(2-{(E)-2-[4-(trifluoromethyl)phenyl]ethenyl}-1,3-oxazol-4-yl)methoxy]phenyl}butyl)-1H-1,2,3-triazole]
- IC50 (Src): > 25 µM
- IC50 (HER2 [1]): 0.004 µM
- T/C (%), MDA-MB-231 (MDA-MB-231 [2]): 87%
- IC50 (G401): < 0.05 µmol/L
- IC50 (NIH: OV-CAR-3): 0.06 µmol/L
- IC50 (HCT-116): < 0.05 µmol/L
- IC50 (786-O): > 25 µmol/L
- IC50 (Ma-1): > 25 µmol/L
- IC50 (BT-474): 0.05 µmol/L
- IC50 (A549): 0.008 µmol/L
- IC50 (ACHN): 0.14 µmol/L
- IC50 (MIA-PaCa-2): 0.02 µmol/L
- IC50 (BxPC-3): > 25 µmol/L
- IC50 (SW480): > 25 µmol/L
- IC50 (MDA-MB-231 [3]): > 25 µmol/L
- IC50 (PA-1): < 0.05 µmol/L
- IC50 (ES-2): 12 µmol/L
- inhibition at 20 mg/kg (HER2 [4]; BT-474, mouse, po, read-out: intra-tumor HER2 phosphorylation, % inhibition): 87%
- intra-tumor HER2 phosphorylation (per tumor weight), % of the control group (HER2 [4]; BT-474 nude mice, 20 mg/kg/day orally 14 days then 10 mg/kg, tumor sampled four hours later): 13%
- cell death induction [5]: induced cell death
- reduction of tumor volume [6]: 13-30%
- T/C (%), BT-474 [7]: −18%
- cell growth inhibitory action on A549 [8]: strong cell growth inhibitory action
- cell growth inhibitory action on Ma-46 [9]: strong cell growth inhibitory action
- cell growth inhibitory action on Ma-1 [10]: did not show a cell growth inhibitory action
